Experimental data published in patent publication US7666901B2, “Analogs of 17-hydroxywortmannin as PI3K inhibitors” (Wyeth, priority 2004, dated 2010).
Values after ≈ are worked out from the molar mass of the structure shown.

Assays:
[1] = system: DU145 (human prostate carcinoma/lymphocytic leukemia); experiment: Cell proliferation (MTS) assay, DU145; format: cell-based; conditions: Table 2, three days treatment; for IC50: Homo sapiens, DU-145, 72 h
Procedure, shortened: (§1)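 Cells plated at about 3000 per well in RPMI-1640/10% FBS were dosed with compound one day later. Viability was read by MTS conversion (absorbance 490 nm, 1–2 h) three days after treatment began. Effect is expressed as percent of vehicle-treated growth on the same plate.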

PI3K = system: T1, PI3K; experiment: Fluorescence polarization assay for PI3K; format: biochemical; conditions: Table 2
T1 construct: PI3K FP IC50
Procedure, shortened: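 PI3K was preincubated with compound at 1% DMSO final, then reacted with PIP2/ATP substrate for 30-60 min. The reaction was stopped with a detector mix giving 10 nM red probe and 70 nM GST-GRP. Fluorescence polarization (mP, Tamra filters) was read 30-90 min later and IC50 determined.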

[2] = system: phosphor-AKT (S473) in Rat1 cells; experiment: Rat1-IGF1 assay (IGF-1 induced phospho-AKT immunoblot); format: cell-based, rat; conditions: Table 2; for IC50: Rattus norvegicus
Procedure, shortened: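 After 24 h serum starvation, Rat1 cells got vehicle or varying 17-HWT concentrations for 2 hours, then IGF-1 (100 ng/mL) for 30 minutes. Lysates immunoblotted for phospho-AKT (S473) and total AKT.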

Human TOR = target: T2, Human TOR (Homo sapiens, UniProt P42345); experiment: Human TOR (mTOR) kinase assay, DELFIA format; format: biochemical; conditions: Table 2
T2 construct: FLAG
Procedure, shortened: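 Purified FLAG-TOR (800 ng/mL) phosphorylates His6-S6K ([…]) with […] ATP in Hepes pH 7.4 buffer containing MnCl2, 2 h at room temperature. Phospho-Thr389 S6K detected by DELFIA using Europium-labelled anti-P(T389)-p70S6K antibody; enzyme inhibition calculated from signal.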

[3] = system: MDA435 (human breast adenocarcinoma); experiment: Cell proliferation (MTS) assay, MDA435; format: cell-based; conditions: Table 2, three days treatment; for IC50: Homo sapiens, MDA435, 72 h
Procedure, shortened: as §1

[4] = system: MDA468 (human breast cancer cell); experiment: Cell proliferation (MTS) assay, MDA468; format: cell-based; conditions: Table 2, three days treatment; for IC50: Homo sapiens, 72 h
Procedure, shortened: as §1

[5] = system: LNCaP (human prostate carcinoma); experiment: Cell proliferation (MTS) assay, LNCaP; format: cell-based; conditions: Table 2, three days treatment; for IC50: Homo sapiens, LNCaP, 72 h
Procedure, shortened: as §1

Row | Compound | IC50 [1] [µg/mL] | IC50 (PI3K) [nM] | IC50 [2] [µg/mL] | IC50 (Human TOR) [nM] | IC50 [3] [µg/mL] | IC50 [4] [µg/mL] | IC50 [5] [µg/mL] | DU145 IC50 [1] [µg/mL] | Rat1-IGF1 IC50 [2] | MDA435 IC50 [3] [µg/mL] | MDA468 IC50 [4] [µg/mL] | LNCaP IC50 [5] [µg/mL]
1 | COCC1OC(=O)C(=CN(C)CCCN2CCOCC2)C2=C(O)C(=O)C3=C(C(OC(C)=O)CC4(C)C(O)CCC34)C21C (centres unmarked) [Compound 27, Acetic acid 6,17-dihydroxy-1-methoxymethyl-10,13-dimethyl-4-{[methyl-(3-morpholin-4-yl-propyl)-amino]-methylene}-3,7-dioxo-1,3,4,7,10,11,12,13,14,15,16,17-dodecahydro-2-oxa-cyclopenta[a]phenanthren-11-yl ester] | 23 (≈ 39.1 µM) | 24 | 0.1 (≈ 0.17 µM) | 2290 | 30 (≈ 51 µM) | 5 (≈ 8.49 µM) | 0.35 (≈ 0.595 µM) | – | – | – | – | –
2 | CCN(CC)CCCN(C=C1C(=O)OC(COC)C2(C)C1=C(O)C(=O)C1=C2C(OC(C)=O)CC2(C)C(O)CCC12)CCS(=O)(=O)c1ccccc1 (centres unmarked) [Compound 28, Acetic acid 4-{[(2-benzenesulfonyl-ethyl)-(3-diethylamino-propyl)-amino]-methylene}-6,17-dihydroxy-1-methoxymethyl-10,13-dimethyl-3,7-dioxo-1,3,4,7,10,11,12,13,14,15,16,17-dodecahydro-2-oxa-cyclopenta[a]phenanthren-11-yl ester] | 8.5 (≈ 11.7 µM) | 131 | > 0.1 | > 13700 | 11 (≈ 15.1 µM) | 3 (≈ 4.12 µM) | 0.12 (≈ 0.165 µM) | – | – | – | – | –
3 | COCC1OC(=O)C(=CN(Cc2ccccc2)CC23CCCN(CCC2)C3)C2=C(O)C(=O)C3=C(C(OC(C)=O)CC4(C)C(O)CCC34)C21C (centres unmarked) [Compound 29, Acetic acid 4-{[(1-aza-bicyclo[3.3.1]non-5-ylmethyl)-benzyl-amino]-methylene}-6,17-dihydroxy-1-methoxymethyl-10,13-dimethyl-3,7-dioxo-1,3,4,7,10,11,12,13,14,15,16,17-dodecahydro-2-oxa-cyclopenta[a]phenanthren-11-yl ester] | 30 (≈ 44.5 µM) | 373 | > 0.1 | > 14800 | > 30 | 15 (≈ 22.2 µM) | 1.8 (≈ 2.67 µM) | – | – | – | – | –
4 | COCC1OC(=O)C(=CN2CCN(CCCN3CCOCC3)CC2)C2=C(O)C(=O)C3=C(C(OC(C)=O)CC4(C)C(O)CCC34)C21C (centres unmarked) [Compound 30, Acetic acid 6,17-dihydroxy-1-methoxymethyl-10,13-dimethyl-4-[4-(3-morpholin-4-yl-propyl)-piperazin-1-ylmethylene]-3,7-dioxo-1,3,4,7,10,11,12,13,14,15,16,17-dodecahydro-2-oxa-cyclopenta[a]phenanthren-11-yl ester] | 21 (≈ 32.6 µM) | 46 | 0.02 (≈ 0.0311 µM) | 1200 | 21 (≈ 32.6 µM) | 4 (≈ 6.21 µM) | 0.41 (≈ 0.637 µM) | – | – | – | – | –
5 | COCC1OC(=O)C(=CN(C)CCN(C)C)C2=C(O)C(=O)C3=C(C(OC(C)=O)CC4(C)C(O)CCC34)C21C (centres unmarked) [Compound 31, Acetic acid 4-{[(2-dimethylamino-ethyl)-methyl-amino]-methylene}-6,17-dihydroxy-1-methoxymethyl-10,13-dimethyl-3,7-dioxo-1,3,4,7,10,11,12,13,14,15,16,17-dodecahydro-2-oxa-cyclopenta[a]phenanthren-11-yl ester] | 21 (≈ 39.4 µM) | 9 | 0.1 (≈ 0.188 µM) | 1280 | 23 (≈ 43.2 µM) | 4 (≈ 7.51 µM) | 0.4 (≈ 0.751 µM) | – | – | – | – | –
6 | COCC1OC(=O)C(=CN2CCN(CCCN(C)C)CC2)C2=C(O)C(=O)C3=C(C(OC(C)=O)CC4(C)C(O)CCC34)C21C (centres unmarked) [Compound 32, Acetic acid 4-[4-(3-dimethylamino-propyl)-piperazin-1-ylmethylene]-6,17-dihydroxy-1-methoxymethyl-10,13-dimethyl-3,7-dioxo-1,3,4,7,10,11,12,13,14,15,16,17-dodecahydro-2-oxa-cyclopenta[a]phenanthren-11-yl ester] | 20 (≈ 33.2 µM) | 39 | 0.1 (≈ 0.166 µM) | 249 | 22 (≈ 36.6 µM) | 4.1 (≈ 6.81 µM) | 0.5 (≈ 0.831 µM) | – | – | – | – | –
7 | COCC1OC(=O)C(=CN2CCN(CCN3CCOCC3)CC2)C2=C(O)C(=O)C3=C(C(OC(C)=O)CC4(C)C(O)CCC34)C21C (centres unmarked) [Compound 33, Acetic acid 6,17-dihydroxy-1-methoxymethyl-10,13-dimethyl-4-[4-(2-morpholin-4-yl-ethyl)-piperazin-1-ylmethylene]-3,7-dioxo-1,3,4,7,10,11,12,13,14,15,16,17-dodecahydro-2-oxa-cyclopenta[a]phenanthren-11-yl ester] | 20 (≈ 31.8 µM) | 78 | 0.1 (≈ 0.159 µM) | 619 | 18 (≈ 28.6 µM) | 4.3 (≈ 6.83 µM) | 0.5 (≈ 0.794 µM) | – | – | – | – | –
8 | COCC1OC(=O)C(=CN2CCN(C3CCN(C)CC3)CC2)C2=C(O)C(=O)C3=C(C(OC(C)=O)CC4(C)C(O)CCC34)C21C (centres unmarked) [Compound 34, Acetic acid 6,17-dihydroxy-1-methoxymethyl-10,13-dimethyl-4-[4-(1-methyl-piperidin-4-yl)-piperazin-1-ylmethylene]-3,7-dioxo-1,3,4,7,10,11,12,13,14,15,16,17-dodecahydro-2-oxa-cyclopenta[a]phenanthren-11-yl ester] | 25 (≈ 40.7 µM) | 91 | 0.1 (≈ 0.163 µM) | 961 | 22 (≈ 35.8 µM) | 6 (≈ 9.78 µM) | 0.48 (≈ 0.782 µM) | – | – | – | – | –
9 | COCC1OC(=O)C(=CN(C)CC(=O)OC(C)(C)C)C2=C(O)C(=O)C3=C(C(OC(C)=O)CC4(C)C(O)CCC34)C21C (centres unmarked) [Compound 35, [(11-Acetoxy-6,17-dihydroxy-1-methoxymethyl-10,13-dimethyl-3,7-dioxo-1,7,10,11,12,13,14,15,16,17-decahydro-2-oxa-cyclopenta[a]phenanthren-4-ylidenemethyl)-methyl-amino]-acetic acid tert-butyl ester] | 3 (≈ 5.21 µM) | 1580 | 0.1 (≈ 0.174 µM) | 13900 | 5.5 (≈ 9.55 µM) | 1.4 (≈ 2.43 µM) | 0.1 (≈ 0.174 µM) | – | – | – | – | –
10 | COCC1OC(=O)C(=CN(C)CC(O)CO)C2=C(O)C(=O)C3=C(C(OC(C)=O)CC4(C)C(O)CCC34)C21C (centres unmarked) [Compound 36, Acetic acid 4-{[(2,3-dihydroxy-propyl)-methyl-amino]-methylene}-6,17-dihydroxy-1-methoxymethyl-10,13-dimethyl-3,7-dioxo-1,3,4,7,10,11,12,13,14,15,16,17-dodecahydro-2-oxa-cyclopenta[a]phenanthren-11-yl ester] | 12 (≈ 22.4 µM) | 199 | 0.1 (≈ 0.187 µM) | 2990 | 5 (≈ 9.34 µM) | 2.3 (≈ 4.29 µM) | 0.09 (≈ 0.168 µM) | – | – | – | – | –
11 | COCC1OC(=O)C(=CN(C)CCCC(=O)O)C2=C(O)C(=O)C3=C(C(OC(C)=O)CC4(C)C(O)CCC34)C21C (centres unmarked) [Compound 37, 4-[(11-Acetoxy-6,17-dihydroxy-1-methoxymethyl-10,13-dimethyl-3,7-dioxo-1,7,10,11,12,13,14,15,16,17-decahydro-2-oxa-cyclopenta[a]phenanthren-4-ylidenemethyl)-methyl-amino]-butyric acid] | 21 (≈ 38.3 µM) | 193 | 0.1 (≈ 0.183 µM) | 12600 | 12 (≈ 21.9 µM) | 4 (≈ 7.3 µM) | 0.2 (≈ 0.365 µM) | – | – | – | – | –
12 | COCC1OC(=O)C(=CN2CCC2C(=O)O)C2=C(O)C(=O)C3=C(C(OC(C)=O)CC4(C)C(O)CCC34)C21C (centres unmarked) [Compound 38, 1-(11-Acetoxy-6,17-dihydroxy-1-methoxymethyl-10,13-dimethyl-3,7-dioxo-1,7,10,11,12,13,14,15,16,17-decahydro-2-oxa-cyclopenta[a]phenanthren-4-ylidenemethyl)-azetidine-2-carboxylic acid] | 2.4 (≈ 4.52 µM) | 63 | 0.1 (≈ 0.188 µM) | 9590 | 4 (≈ 7.53 µM) | 1.3 (≈ 2.45 µM) | 0.06 (≈ 0.113 µM) | – | – | – | – | –
13 | COCC1OC(=O)C(=CN2CCCC2C(=O)OC)C2=C(O)C(=O)C3=C(C(OC(C)=O)CC4(C)C(O)CCC34)C21C (centres unmarked) [Compound 39, 1-(11-Acetoxy-6,17-dihydroxy-1-methoxymethyl-10,13-dimethyl-3,7-dioxo-1,7,10,11,12,13,14,15,16,17-decahydro-2-oxa-cyclopenta[a]phenanthren-4-ylidenemethyl)-pyrrolidine-2-carboxylic acid methyl ester] | 2.4 (≈ 4.29 µM) | 770 | 0.1 (≈ 0.179 µM) | 12300 | 4 (≈ 7.15 µM) | 1.2 (≈ 2.14 µM) | 0.043 (≈ 0.0768 µM) | – | – | – | – | –
14 | COCC1OC(=O)C(=CN2CCCC2C(=O)OC)C2=C(O)C(=O)C3=C(C(OC(C)=O)CC4(C)C(O)CCC34)C21C (centres unmarked) [Compound 40, 1-(11-Acetoxy-6,17-dihydroxy-1-methoxymethyl-10,13-dimethyl-3,7-dioxo-1,7,10,11,12,13,14,15,16,17-decahydro-2-oxa-cyclopenta[a]phenanthren-4-ylidenemethyl)-pyrrolidine-2-carboxylic acid methyl ester] | – | 444 | – | > 17900 | – | – | – | 1.85 | >0.1(hint) μg/ml | 5.5 | 0.75 | 0.085
